Structures are written as SMILES. Activity calls are given as the source filed them. The calls are words filed in the database; no cut-off is given here.

Usually IC50 stands for the concentration needed to halve the response being measured. A lower IC50 goes with greater potency. In general, Papp refers to a coefficient for how fast a substance crosses the barrier. Read a low Papp as slow passage. A word on the Ki: it is the dissociation constant of the complex between target and ligand, obtained from inhibition or displacement.

Series [1] concerns the target T1, Acetylcholinesterase (Homo sapiens, UniProt P22303).
Description: Inhibition of human erythrocyte AChE using acetylthiocholine iodide as substrate preincubated for 5 mins followed by substrate addition measured at 2 mins time interval by Ellman's method
For the next series, the target named is Cholinesterase (Homo sapiens, UniProt P06276).
In series [2] the target is T2, Muscarinic acetylcholine receptor M1 (Homo sapiens, UniProt P11229).
T2 sequence (P11229 whole entry): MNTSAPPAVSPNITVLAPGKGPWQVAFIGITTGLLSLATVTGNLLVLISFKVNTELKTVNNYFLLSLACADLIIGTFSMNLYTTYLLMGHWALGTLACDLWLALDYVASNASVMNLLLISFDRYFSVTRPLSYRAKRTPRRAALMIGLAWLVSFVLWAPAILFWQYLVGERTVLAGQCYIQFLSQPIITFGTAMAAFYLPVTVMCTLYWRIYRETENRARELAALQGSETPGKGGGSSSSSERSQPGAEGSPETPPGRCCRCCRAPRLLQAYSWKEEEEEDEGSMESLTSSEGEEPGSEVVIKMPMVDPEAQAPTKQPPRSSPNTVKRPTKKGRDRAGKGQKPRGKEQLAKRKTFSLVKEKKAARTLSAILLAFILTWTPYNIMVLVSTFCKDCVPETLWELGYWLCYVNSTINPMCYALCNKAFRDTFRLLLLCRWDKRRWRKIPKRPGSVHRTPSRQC
It is filed as functional, cell-based, CHO.

A short description of series [3]: in vitro. The conditions noted are these: PAMPA. For orientation: In PAMPA a lipid-coated filter parts donor from acceptor wells.
Series [4] can be described thus: in vitro. The conditions noted are these: PAMPA. The source holds these as a separate data set.
A further series concerns HepG2. Kind of series: cells. The series is classed as ADME, cell-based. To be noted: Homo sapiens, HepG2, 24 h.
The nature of series [5]: Solubility of the compound in PBS buffer. It is filed as physicochemical.
Series [6] deals with T1, Acetylcholinesterase. Kind of series: Mixed type inhibition of human erythrocyte AChE assessed as enzyme-substrate-inhibitor complex using varying levels of acetylthiocholine iodide as substrate preincubated for 5 mins followed by substrate addition by Lineweaver-Burk plot analysis.
The target of series [7] is T1, Acetylcholinesterase. Kind of series: Mixed type inhibition of human erythrocyte AChE assessed as enzyme-inhibitor complex using varying levels of acetylthiocholine iodide as substrate preincubated for 5 mins followed by substrate addition by Lineweaver-Burk plot analysis.
Series [8] has as its target T3, Muscarinic acetylcholine receptor M1 (Homo sapiens) (UniProt P11229).
T3 sequence (whole entry): T2 sequence (P11229 whole entry)
Kind of series: Positive allosteric modulation of human M1 mAChR expressed in CHO cells assessed as increase in oxotremorine M-stimulated calcium influx preincubated for 10 mins followed by oxotremorine M addition by Fluo-4 NW dye based fluorescence assay. The series is classed as functional, cell-based.

T1 sequence (P22303 whole entry): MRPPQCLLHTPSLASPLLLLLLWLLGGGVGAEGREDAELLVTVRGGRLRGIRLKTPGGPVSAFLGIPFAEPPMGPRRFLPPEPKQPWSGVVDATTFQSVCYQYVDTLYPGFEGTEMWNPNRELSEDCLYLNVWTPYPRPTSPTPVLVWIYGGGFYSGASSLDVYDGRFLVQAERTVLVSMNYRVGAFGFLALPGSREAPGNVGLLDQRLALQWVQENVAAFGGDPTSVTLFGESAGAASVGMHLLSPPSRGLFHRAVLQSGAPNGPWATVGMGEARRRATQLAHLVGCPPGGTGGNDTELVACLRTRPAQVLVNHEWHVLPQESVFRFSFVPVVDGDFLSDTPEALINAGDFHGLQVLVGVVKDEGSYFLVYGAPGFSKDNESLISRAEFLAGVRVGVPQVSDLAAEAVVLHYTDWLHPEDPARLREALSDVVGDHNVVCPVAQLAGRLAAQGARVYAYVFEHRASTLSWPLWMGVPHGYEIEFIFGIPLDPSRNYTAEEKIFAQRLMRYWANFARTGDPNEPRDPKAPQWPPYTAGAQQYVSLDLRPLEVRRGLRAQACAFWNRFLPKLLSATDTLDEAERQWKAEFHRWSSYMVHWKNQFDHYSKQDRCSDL
Chain of Cholinesterase (P06276 whole entry): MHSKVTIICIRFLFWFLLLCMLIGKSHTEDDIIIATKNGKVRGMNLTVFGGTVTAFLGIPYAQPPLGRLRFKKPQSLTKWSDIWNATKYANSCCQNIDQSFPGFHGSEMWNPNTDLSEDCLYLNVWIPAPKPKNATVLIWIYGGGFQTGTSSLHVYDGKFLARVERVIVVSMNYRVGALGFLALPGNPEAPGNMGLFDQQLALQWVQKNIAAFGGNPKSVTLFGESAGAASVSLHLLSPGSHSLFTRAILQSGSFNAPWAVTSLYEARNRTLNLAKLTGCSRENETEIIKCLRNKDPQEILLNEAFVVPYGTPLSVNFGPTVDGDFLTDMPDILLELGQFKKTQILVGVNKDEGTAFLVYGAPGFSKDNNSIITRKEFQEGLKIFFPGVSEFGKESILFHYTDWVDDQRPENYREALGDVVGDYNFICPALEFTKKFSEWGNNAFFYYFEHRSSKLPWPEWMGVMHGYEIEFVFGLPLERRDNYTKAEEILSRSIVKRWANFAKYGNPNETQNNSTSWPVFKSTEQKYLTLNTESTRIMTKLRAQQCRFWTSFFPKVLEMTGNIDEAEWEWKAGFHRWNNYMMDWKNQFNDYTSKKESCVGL
Description for HepG2: Cytotoxicity against human HepG2 cells assessed as reduction in cell viability after 24 hrs by MTT assay

`COc1ccc(Cn2cc(C(=O)NCCCCNc3c4c(nc5ccccc35)CCCC4)c(=O)c3ccccc32)cc1`: the IC50 at Acetylcholinesterase [1] turned out to be 0.491 µM; against Cholinesterase, 1.32 µM; in series [2], 1.59 µM.
With `CN(C)CCCN1c2ccccc2Sc2ccccc21` [PROMAZINE], the apparent permeability (Papp) at 100 µM in “in vitro [3]” turned out to be 6.6 ×10⁻⁶ cm/s; in “in vitro [4]”, 9.4 ×10⁻⁶ cm/s.
On to `COc1ccc(Cn2cc(C(=O)NCCCNc3c4c(nc5ccccc35)CCCC4)c(=O)c3ccccc32)cc1`, for which the 50% inhibitory concentration (IC50) in the series on HepG2 stood at 2.17 µM; against Acetylcholinesterase [1] it was 0.129 µM; on Cholinesterase, 0.674 µM; in series [2], 0.455 µM. Also, the solubility entry in [5] was “Insoluble”. Besides, the Papp at 100 µM in the series “in vitro [3]” stood at 2.6 ×10⁻⁶ cm/s.
Take `COc1ccc(Cn2cc(C(=O)NCCCCCCNc3c4c(nc5cc(Cl)ccc35)CCCC4)c(=O)c3ccccc32)cc1`: the IC50 on Acetylcholinesterase [1] turned out to be 0.0941 µM; against Cholinesterase, 13.4 µM; in series [2] it was 2.78 µM.
As to `COc1ccc(Cn2cc(C(=O)NCCCNc3c4c(nc5cc(Cl)ccc35)CCCC4)c(=O)c3ccccc32)cc1`, the concentration for half-maximal inhibition (IC50) was found to be 4.99 µM in the series on HepG2, 0.0419 µM at Acetylcholinesterase [1], 3.72 µM on Cholinesterase and 4.01 µM in series [2]. Besides, the solubility entry in series [5] is listed as “Insoluble”. The apparent permeability coefficient (Papp) at 100 µM in “in vitro [3]” was 3.08 ×10⁻⁶ cm/s. The Ki on Acetylcholinesterase [6] came out at 0.00157 µM; at Acetylcholinesterase [7] it was 0.00328 µM.
As for `COc1ccc(Cn2cc(C(=O)NCCCCCCNc3c4c(nc5ccccc35)CCCC4)c(=O)c3ccccc32)cc1`, the IC50 with HepG2 turned out to be 2.72 µM; on Acetylcholinesterase [1], 0.194 µM; against Cholinesterase it was 0.28 µM; in series [2], 1.49 µM. The solubility entry in series [5] is on record as “Insoluble”. Besides, in the series “in vitro [3]”, the Papp at 100 µM was 2.28 ×10⁻⁶ cm/s.
With `COc1ccc(Cn2cc(C(=O)O)c(=O)c3ccccc32)cc1`, the half-inhibitory concentration (IC50) against Acetylcholinesterase [1] and against Cholinesterase was over 1000 µM each time. In series [8], the outcome was Active.
For the molecule `COc1ccc(Cn2cc(C(=O)NCCNc3c4c(nc5ccc(OC)cc35)CCCC4)c(=O)c3ccccc32)cc1`, the IC50 in the series with HepG2 stood at 1.63 µM; against Acetylcholinesterase [1] it was 2.64 µM; against Cholinesterase it was 0.408 µM; in series [2], 3.71 µM. For the same molecule, in series [5], the solubility entry is listed as “Insoluble”. For the same molecule, the apparent permeability (Papp) at 100 µM in the series “in vitro [3]” came out at 1.65 ×10⁻⁶ cm/s.
As for `COc1ccc(Cn2cc(C(=O)NCCCCCNc3c4c(nc5ccccc35)CCCC4)c(=O)c3ccccc32)cc1`, the IC50 is 0.293 µM on Acetylcholinesterase [1], 0.823 µM at Cholinesterase and 1.48 µM in series [2].
With `COc1ccc(Cn2cc(C(=O)NCCNc3c4c(nc5ccccc35)CCCC4)c(=O)c3ccccc32)cc1`, the IC50 with HepG2 turned out to be 1.44 µM; against Acetylcholinesterase [1], 0.187 µM; against Cholinesterase it was 0.0589 µM; in series [2], 0.658 µM. Moreover, the solubility entry in series [5] is listed as “Insoluble”. Besides, in the series “in vitro [3]”, the Papp at 100 µM was found to be 1.8 ×10⁻⁶ cm/s.
As to `C[C@]12CC[C@H]3[C@@H](CCC4=CC(=O)CC[C@@]43C)[C@@H]1CC[C@@H]2O` [TESTOSTERONE], the values for the Papp at 100 µM in the series “in vitro [3]” and in “in vitro [4]” were 8.5 ×10⁻⁶ cm/s and 11.6 ×10⁻⁶ cm/s, respectively.
Consider `COc1ccc(Cn2cc(C(=O)NCCCCNc3c4c(nc5cc(Cl)ccc35)CCCC4)c(=O)c3ccccc32)cc1`, for which the IC50 against Acetylcholinesterase [1] came to 0.0896 µM; against Cholinesterase, 3.12 µM; in series [2], 4.11 µM.
With `CC(=O)[C@H]1CC[C@H]2[C@@H]3CCC4=CC(=O)CC[C@]4(C)[C@H]3CC[C@]12C` [PROGESTERONE], the apparent permeability (Papp) at 100 µM in “in vitro [3]” was 8.6 ×10⁻⁶ cm/s; in the series “in vitro [4]” it was 10.8 ×10⁻⁶ cm/s.
With `COc1ccc(Cn2cc(C(=O)NCCCCCCCNc3c4c(nc5cc(Cl)ccc35)CCCC4)c(=O)c3ccccc32)cc1`, the IC50 was over 40 µM in the series on HepG2, 0.0517 µM against Acetylcholinesterase [1], 3.34 µM at Cholinesterase and 5.35 µM in series [2]. Further, the solubility entry in [5] was “Insoluble”. For the same molecule, the Papp at 100 µM in the series “in vitro [3]” was determined as 2.35 ×10⁻⁶ cm/s.
Regarding `COc1ccc(Cn2cc(C(=O)NCCCCCCCCNc3c4c(nc5cc(Cl)ccc35)CCCC4)c(=O)c3ccccc32)cc1`, the values for the IC50 (against Acetylcholinesterase [1]; against Cholinesterase; in series [2]) were 0.119 µM, 37.2 µM and 9.45 µM, respectively.
Regarding `COc1ccc(Cn2cc(C(=O)NCCCCCCCNc3c4c(nc5ccc(OC)cc35)CCCC4)c(=O)c3ccccc32)cc1`, the IC50 amounted to 0.6 µM in the series on HepG2, 1.53 µM against Acetylcholinesterase [1], 49.3 µM at Cholinesterase and 11.4 µM in [2]. Moreover, in series [5], the solubility result was “Insoluble”. The molecule further came in with a Papp at 100 µM in “in vitro [3]” of 9.25 ×10⁻⁶ cm/s.
Consider `Nc1c2c(nc3cc(Cl)ccc13)CCCC2`, for which the half-inhibitory concentration (IC50) is 43.2 µM in the series on HepG2 and 6.09 µM in series [2].
With `COc1ccc(Cn2cc(C(=O)NCCCCCNc3c4c(nc5cc(Cl)ccc35)CCCC4)c(=O)c3ccccc32)cc1`, the IC50 against Acetylcholinesterase [1] was 0.18 µM; against Cholinesterase, 7.74 µM; in series [2] it was 3.27 µM.
For `COc1ccc(Cn2cc(C(=O)NCCNc3c4c(nc5cc(Cl)ccc35)CCCC4)c(=O)c3ccccc32)cc1`, the IC50 in the series with HepG2 was 3.48 µM; against Acetylcholinesterase [1], 0.0745 µM; against Cholinesterase it was 0.0833 µM; in [2], 4.23 µM. Besides, the solubility result in [5] was “Insoluble”. Moreover, the apparent permeability (Papp) at 100 µM in “in vitro [3]” was 2.37 ×10⁻⁶ cm/s.
`COc1ccc(Cn2cc(C(=O)NCCCCCNc3c4c(nc5ccc(OC)cc35)CCCC4)c(=O)c3ccccc32)cc1`: the half-maximal inhibitory concentration (IC50) stood at 8.02 µM at Acetylcholinesterase [1], 6.16 µM against Cholinesterase and 1.37 µM in series [2].
Turning to `COc1ccc(Cn2cc(C(=O)NCCCCCCCCNc3c4c(nc5ccc(OC)cc35)CCCC4)c(=O)c3ccccc32)cc1`, the concentration for half-maximal inhibition (IC50) against Acetylcholinesterase [1] worked out at 74.3 µM; on Cholinesterase, 12.4 µM; in [2] it was 7.86 µM.
For `COc1ccc(Cn2cc(C(=O)NCCCCCCCNc3c4c(nc5ccccc35)CCCC4)c(=O)c3ccccc32)cc1` the same measures were 0.194 µM, 1.19 µM and 2.14 µM.
For the molecule `COc1ccc(Cn2cc(C(=O)NCCCCCCCCNc3c4c(nc5ccccc35)CCCC4)c(=O)c3ccccc32)cc1`, the values for the IC50 (against Acetylcholinesterase [1]; against Cholinesterase; in series [2]) were 0.768 µM, 1.28 µM and 2.05 µM, respectively.
For the molecule `COc1ccc(Cn2cc(C(=O)NCCCCNc3c4c(nc5ccc(OC)cc35)CCCC4)c(=O)c3ccccc32)cc1`, the IC50 turned out to be 9.5 µM on Acetylcholinesterase [1], 1.08 µM on Cholinesterase and 1.07 µM in series [2].
Turning to `COc1ccc(Cn2cc(C(=O)NCCCNc3c4c(nc5ccc(OC)cc35)CCCC4)c(=O)c3ccccc32)cc1`, the IC50 with HepG2 was 2.42 µM; against Acetylcholinesterase [1], 2.24 µM; against Cholinesterase, 1.03 µM; in series [2] it was 2.48 µM. Also, the solubility result in series [5] is “Insoluble”. In the series “in vitro [3]”, this molecule came in with an apparent permeability (Papp) at 100 µM of 4.85 ×10⁻⁶ cm/s.
Take `COc1ccc2nc3c(c(N)c2c1)CCCC3`: the half-inhibitory concentration (IC50) with HepG2 turned out to be 44.4 µM; in series [2], 3.71 µM.
As for `COc1ccc(Cn2cc(C(=O)NCCCCCCNc3c4c(nc5ccc(OC)cc35)CCCC4)c(=O)c3ccccc32)cc1`, the IC50 worked out at 10 µM at Acetylcholinesterase [1], 16.6 µM at Cholinesterase and 8.61 µM in series [2].

Source of the values: ChEMBL document CHEMBL4196084 (Eur J Med Chem, 2018).
